Source: patent publication US20140127228A1 (INDIANA UNIVERSITY SCHOOL OF MEDICINE, priority 2012, published 2014)
Entries after “also recorded” stand apart in the source; their conditions may differ.

Key:
[1] = test system: 1205Lu melanoma cells; assay: melanoma bone metastasis in nude mice inoculated with 1205Lu melanoma cells; format: in vivo, mouse
Excerpt: Halofuginone (Hfg) is a synthetic derivative of the plant alkaloid febrifugine, a traditional Chinese herbal medicine. Hfg increases expression of Smad7, an intracellular inhibitor of TGF-beta signaling. […] Hfg has been widely used as a veterinary agent with an excellent safety profile.
(§1) TGFbeta derived from bone fuels melanoma bone metastasis by inducing tumor secretion of pro-metastatic factors that act on bone cells to change the skeletal microenvironment. […] Hfg is active orally and by intraperitoneal injection, and it has completed Phase I clinical trials in cancer patients. It suppresses the phosphorylation and activation of Smad2 and Smad3 by inducting of Smad7. Overexpression of inhibitory Smad7 has been associated with a reduction on invasive capacity in vitro and anchorage-independent growth, and delays subcutaneous tumor growth in nude mice. The present inventors have shown that Smad7 overexpression decreased melanoma bone metastasis, thus is useful for treating and/or preventing muscle weakness and atrophy as well as other muscle related side effects in cancer patients.

[2] = test system: human melanoma cells; assay: Hfg treatment of human melanoma cells; format: cell-based
Excerpt: as §1

[3] = models of muscular dystrophy; cited from earlier work
[4] = test system: 1205Lu melanoma cells; conditions: mouse, in vivo; cited from earlier work
[5] = test system: RyR1; assay: RyR1 oxidation, nitrosylation and calstabin 1 depletion in EDL (immunoprecipitation/immunoblot); format: in vivo, mouse; conditions: mice with PC-3 prostate cancer metastatic to bone
Excerpt: (§2) In embodiment A is shown that body weight is decreased in nude mice inoculated with PC-3 human prostate cancer cells and that osteolytic lesions are present in the tibia and histology of the femur, as shown in X-ray images. In embodiments B and C are shown decreased skeletal muscle cross-sectional area in tumor-bearing mice determined by Micro-CT as described herein. In embodiments D and E are shown decreased body weight (D) and decreased Grip strength (E) in PC-3 tumor bearing mice. […] In embodiment J is shown that RyR1 is oxidized and there is decreased calstabin 1 in the RyR complex from, skeletal muscle (EDL) from mice with metastatic prostate cancer. […] All immunoblots were developed and quantified with the Odyssey system (LI-COR, Inc., Lincoln, Nebr.) using IR labeled anti-mouse and anti-Rabbit IgG (1:10,000 dilution) secondary antibodies. […] Quantification of immunoblots showing the relative nitrotyrosine/SERCA for each group of EDLs tested. *p<0.01 compared to non-cancer controls as analyzed by ANOVA. […]
Quantification of RyR1 skeletal channel nitrosylation, oxidation and phosphorylation by protein kinase A (PKA) are performed as described (Bellinger et al., 2009; Bellinger et al., 2008b).
Quantification of depletion of the channel stabilizing subunit calstabin 1 (FKBP12) from skeletal RyR1 by immunoprecipitation techniques are performed as described (Marx et al., 2000). […]

[6] = test system: EDL muscle of mice with PC-3 prostate cancer bone metastases; assay: EDL muscle specific force production in mice with PC-3 prostate cancer bone metastases; format: in vivo, mouse; conditions: hypogonadal mice with PC-3 prostate cancer metastatic to bone
Excerpt: as §2
Extensor digitorum longus (EDL) muscles are dissected from the hind limbs using micro dissection scissors and forceps. […] To quantify the specific force, the absolute force is normalized to the muscle cross-sectional area, calculated as the muscle weight divided by the length and a muscle density constant of […] as previously described (Yamada et al., 2009).

[7] = test system: PC-3 bone metastases; assay: PC-3 prostate cancer bone metastases in mice; format: in vivo, mouse; conditions: 50 mg/kg starting 2 days prior to inoculation
Excerpt: (§3) These experiments utilize two murine models of prostate cancer bone metastases induced by PC-3 (osteolytic and cachectic; FIGS. 4A-K) or LuCAP23.1 (osteoblastic and not cachectic; FIGS. 5A-B).
(§4) For all mouse experiments, N=15 for each group of mice for tumors inoculated in the left cardiac ventricle (PC-3) or intratibially (LuCAP23.1) based on power analysis detailed below. Male nude mice are housed in laminar flow isolated hoods with water supplemented with vitamin K and autoclaved mouse chow provided ad libitum. Cells are introduced into mice at 4 wks of age. Animals are anesthetized with ketamine/xylazine and positioned ventral side up.
Multiple modalities of bone imaging including X-ray and μCT are used to longitudinally monitor the bone lesions and confirmed by histology and quantitative histomorphometry as previously described (Dunn et al., 2009; Guise et al., 1996b; Yin et al., 1999). Muscle mass are followed serially in vivo using the Piximus II system (Wiren et al., 2011) and microCT (Manske et al., 2011).

[8] = test system: SERCA; assay: SERCA oxidation in EDL muscle lysates (immunoprecipitation/immunoblot); format: in vivo, mouse; conditions: prostate cancer mice
Excerpt: In embodiment A is shown that body weight is decreased in nude mice inoculated with PC-3 human prostate cancer cells and that osteolytic lesions are present in the tibia and histology of the femur, as shown in X-ray images. In embodiments B and C are shown decreased skeletal muscle cross-sectional area in tumor-bearing mice determined by Micro-CT as described herein. In embodiments D and E are shown decreased body weight (D) and decreased Grip strength (E) in PC-3 tumor bearing mice. […] In embodiment J is shown that RyR1 is oxidized and there is decreased calstabin 1 in the RyR complex from, skeletal muscle (EDL) from mice with metastatic prostate cancer. RyR1 was immunoprecipitated from 250 μg of EDL homogenate using an anti-RyR antibody (4 μg 5029 Ab), and the immunoprecipitates were separated on SDS-PAGE gels (6% for RyR, 15% for Calstabin). All immunoblots were developed and quantified with the Odyssey system (LI-COR, Inc., Lincoln, Nebr.) using IR labeled anti-mouse and anti-Rabbit IgG (1:10,000 dilution) secondary antibodies. Immunoblots developed using anti-RyR (clone 34C, 1:5,000), anti-Cys-NO (1:1000, Sigma, St. Louis. MO), anti-DNP (to determine RyR1 oxidation. 1:250), and anticalstabin (1:2500). […] Quantification of immunoblots showing the relative nitrotyrosine/SERCA for each group of EDLs tested. *p<0.01 compared to non-cancer controls as analyzed by ANOVA. […]

[9] = test system: LuCaP 23.1 human prostate cancer osteoblastic xenograft; assay: LuCaP 23.1 osteoblastic prostate cancer xenograft in tibia of nude mice; format: in vivo, mouse
Excerpt: as §3, §4
Four-week old, male nude mice were inoculated into the tibia with LuCaP 23.1 human prostate cancer osteoblastic xenograft (n=14-15/group).

[10] = test system: mouse mammary carcinomas; conditions: cited from earlier work
[11] = patients with prostate cancer bone metastases; cited from earlier work
[12] = 50 or 150 mg/kg/day po from 12 weeks post tumor inoculation

## O=C(CC1NCCCC1O)Cn1cnc2cc(Br)c(Cl)cc2c1=O (stereo not shown) [Halofuginone]
[1]; mice with established bone metastasis, vs placebo
  osteolysis assessed by radiography: significantly less osteolysis
[1]; mouse, in vivo
  melanoma metastasis to the brain: reduce melanoma metastasis to the brain
[1]; preventive protocol, nude mice inoculated with 1205Lu melanoma cells
  bone metastasis: inhibited bone metastasis
[2]
  TGFbeta-induced SMAD-driven transcription: inhibited
  cell apoptosis: increased
  cell proliferation: inhibited
  expression of TGFbeta target genes (PTHrP, CTGF, CXCR4, IL11): reducing expression
  phosphorylation of SMAD proteins in response to TGFbeta: inhibited
[3]
  muscle function: improve muscle function
[4]
  development and progression of bone metastasis caused by melanoma cells: decreases development and progression of bone metastasis

## Fc1ccc(Cl)cc1-c1nc(Nc2ccncc2)c2nccnc2n1 [SD-208]
[5]
  oxidation/nitrosylation/calstabin 1 depletion of skeletal muscle RyR1: prevented oxidation/nitrosylation/calstabin 1 depletion from RyR1; also recorded: prevented oxidation of RyR1
[6]
  muscle (EDL) specific force production: improved muscle specific force production
[7]
  PC-3 bone metastases (X-ray, osteolytic lesion area, survival): highly effective; also recorded: prevents PC-3 bone metastases
[8]
  oxidation of SERCA: inhibited oxidation of SERCA
[9]; [12]
  bone formation: does not increase
  tumor growth: does not increase
[9]; mouse, in vivo
  LuCAP23.1 bone metastases: not effective
[10]
  tumor growth in vivo: inhibit

## denosumab: inhibitor of bone resorption
[11]
  skeletal morbidity: reduce skeletal morbidity
